Source: patent publication US12357610B2, “Aryl-substituted acetamide and pyrrolidin-2-one derivatives and their use for the treatment of seizures” (University of Houston System, priority 2017, dated 2025)

System: convulsions in animal models of medically refractory epilepsy
Assay: rodent models of medically refractory epilepsy (FIG. 12)
Type: in vivo
Details: multiple rodent models

CCC1(c2ccccc2)CCNC1=O (racemic) [3-ethyl-3-phenylpyrrolidin-2-one]
activity in preventing convulsions in animal models of medically refractory epilepsy: active
